# Measured values published in patent US7491827B2, “Aryl sulfonamides useful as inhibitors of chemokine receptor activity” (Millennium Pharmaceuticals, Inc., priority 2003, dated 2009).
# Target: T1, cloned human CCR8 receptor stably expressed in L1.2 cells (Homo sapiens, UniProt P51685)
# T1 construct: expressed in transfected cells
# Experiment: whole cell binding screen: inhibition of biotinylated human I309 binding to CCR8 (FMAT 8100 HTS)
# Details: Ki of compounds to inhibit I-309 binding to CCR8, L1.2/hCCR8 cells, biotinylated human I-309, 10 point concentration response starting at 10 μM
# How it was run: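 L1.2 murine pre-B cells stably expressing human CCR8 (4.0×10^5 cells/mL) in HBSS/HEPES/fatty-acid-free BSA/azide buffer were mixed with biotinylated human I309 and compounds for 0.5 h, read by FMAT fluorescence. 10-point curves from 10 μM final; percent inhibition normalized to no-inhibitor and 100 nM unlabeled I309 controls.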
# T1 sequence (P51685 whole entry): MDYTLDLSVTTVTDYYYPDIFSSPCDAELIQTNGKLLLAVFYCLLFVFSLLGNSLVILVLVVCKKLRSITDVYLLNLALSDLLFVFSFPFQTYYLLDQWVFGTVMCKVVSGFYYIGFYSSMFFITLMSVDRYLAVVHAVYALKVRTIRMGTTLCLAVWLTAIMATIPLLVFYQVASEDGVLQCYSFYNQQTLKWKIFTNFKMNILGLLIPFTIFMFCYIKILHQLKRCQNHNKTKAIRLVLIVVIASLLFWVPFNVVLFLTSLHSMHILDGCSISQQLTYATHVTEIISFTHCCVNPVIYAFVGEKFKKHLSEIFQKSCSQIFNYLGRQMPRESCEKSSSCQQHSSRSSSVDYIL
row,SMILES,Ki
1,"CCCC(=O)N1CCC(NS(=O)(=O)c2ccc(NC(=O)C3CCCCC3)c3ccccc23)CC1 [Compound D-16, Cyclohexanecarboxylic acid [4-(1-butyryl-piperidin-4-ylsulfamoyl)-naphthalen-1-yl]-amide]",< 500 nM
2,"CCCC(=O)N1CCC(NS(=O)(=O)c2ccc(NC(=O)c3ccccc3C)c3ccccc23)CC1 [Compound C-35, N-[4-(1-Butyryl-piperidin-4-ylsulfamoyl)-naphthalen-1-yl]-2-methyl-benzamide]",< 500 nM
3,"O=C(Nc1ccc(S(=O)(=O)NCc2ccccc2)c2ccccc12)c1ccccc1 [Compound A-3, N-(4-Benzylsulfamoyl-naphthalen-1-yl)-benzamide]",< 500 nM

# Same assay, conditions: L1.2/hCCR8 cells, biotinylated human I-309, 10 point concentration response starting at 10 μM; read-out: Ki of compounds to inhibit I-309 binding to CCR8
row,SMILES,Ki
1,"CCOC(=O)N1CCC(NS(=O)(=O)c2cccc3c(C(=O)Nc4ccccc4)cccc23)CC1 [Compound H-27, 4-(5-Phenylcarbamoyl-naphthalene-1-sulfonylamino)-piperidine-1-carboxylic acid ethyl ester]",< 1000 nM
2,"Cc1ccccc1NC(=O)c1cccc2c(S(=O)(=O)NC3CCN(C(=O)N(C)C)CC3)cccc12 [Compound H-32, 4-(5-o-Tolylcarbamoyl-naphthalene-1-sulfonylamino)-piperidine-1-carboxylic acid dimethylamide]",< 500 nM
3,"COc1ccc(NS(=O)(=O)c2ccc(NC(=O)c3ccccc3C)c3ccccc23)cc1 [Compound B-11, N-[4-(4-Methoxy-phenylsulfamoyl)-naphthalen-1-yl]-2-methyl-benzamide]",< 500 nM
4,"CCOC(=O)N1CCC(NS(=O)(=O)c2ccc(CNCc3cccnc3)c3ccccc23)CC1 [Compound G-12, 4-(4-{[(Pyridin-3-ylmethyl)-amino]-methyl}-naphthalene-1-sulfonylamino)-piperidine-1-carboxylic acid ethyl ester]",< 500 nM
5,"CCOC(=O)N1CCC(NS(=O)(=O)c2ccc(NC(=O)c3cc(C)ccc3C)c3ccccc23)CC1 [Compound B-28, 4-[4-(2,5-Dimethyl-benzoylamino)-naphthalene-1-sulfonylamino]-piperidine-1-carboxylic acid ethyl ester]",< 500 nM
6,"CCCC(=O)N1CC[C@H](NS(=O)(=O)c2ccc(NC(=O)c3c(C)noc3C)c3ccccc23)[C@H](C)C1 (racemic) [Compound D-5, (±)-(cis)-3,5-Dimethyl-isoxazole-4-carboxylic acid [4-(1-butyryl-3-methyl-piperidin-4-ylsulfamoyl)-naphthalen-1-yl]-amide]",< 500 nM
7,"CCOC(=O)N1CCC(NS(=O)(=O)c2ccc(NC(=O)c3cccc(C)c3)c3ccccc23)CC1 [Compound B-13, 4-[4-(3-Methyl-benzoylamino)-naphthalene-1-sulfonylamino]-piperidine-1-carboxylic acid ethyl ester]",< 1000 nM
8,"CCOC(=O)C1CN(C(=O)CN(C)C)CCC1NS(=O)(=O)c1ccc(NC(=O)c2ccccc2C)c2ccccc12 (stereo not drawn) [Compound C-83, 1-(2-Dimethylainino-acetyl)-4-[4-(2-methyl-benzoylamino)-naphthalene-1-sulfonylamino]-piperidine-3-carboxylic acid ethyl ester]",< 30000 nM
9,"CCOC(=O)N1CC[C@H](NS(=O)(=O)c2ccc(NC(=O)c3ccccc3C)c3ccccc23)[C@H](C)C1 (racemic) [Compound C-136, (±)-cis-3-Methyl-4-[4-(2-methyl-benzoylamino)-naphthalene-1-sulfonylamino]-piperidine-1-carboxylic acid ethyl ester]",< 500 nM
10,"COc1ccc(NS(=O)(=O)c2ccc(NC(=O)c3ccc(OC)cc3)c3ccccc23)cc1 [Compound B-2, 4-Methoxy-N-[4-(4-methoxy-phenylsulfamoyl)-naphthalen-1-yl]-benzamide]",< 500 nM
11,"Cc1ccccc1C(=O)Nc1ccc(S(=O)(=O)N[C@H]2CCNC[C@H]2C)c2ccccc12 (racemic) [Compound C-28, (±)-cis-2-Methyl-N-[4-(3-methyl-piperidin-4-ylsulfamoyl)-naphthalen-1-yl]-benzamide]",< 1000 nM
12,"CCCC(=O)N1CC[C@H](NS(=O)(=O)c2ccc(NC(=O)c3ncccc3C)c3ccccc23)[C@H](C)C1 (racemic) [Compound D-4, (±)-(cis)-3-Methyl-pyridine-2-carboxylic acid [4-(1-butyryl-3-methyl-piperidin-4-ylsulfamoyl)-naphthalen-1-yl]-amide]",< 500 nM
13,"COc1ccc(NS(=O)(=O)c2ccc(NC(=O)C3CCCCC3)c3ccccc23)cc1 [Compound B-4, Cyclohexanecarboxylic acid [4-(4-methoxy-phenylsulfamoyl)-naphthalen-1-yl]-amide]",< 500 nM
14,"Cc1ccccc1C(=O)Nc1ccc(S(=O)(=O)N[C@@H]2[C@H](C)CN(Cc3ccccc3)C[C@@H]2C)c2ccccc12 [Compound A-46, (±)-(cis, cis)-N-[4-(1-Benzyl-3,5-dimethyl-piperidin-4-ylsulfamoyl)-naphthalen-1-yl]-2-methyl-benzamide]",< 30000 nM
15,"CCOC(=O)N1CCC(NS(=O)(=O)c2ccc(NC(=O)c3ccccc3C#N)c3ccccc23)CC1 [Compound B-26, 4-[4-(2-Cyano-benzoylamino)-naphthalene-1-sulfonylamino]-piperidine-1-carboxylic acid ethyl ester]",< 500 nM
16,"Cc1ccccc1C(=O)Nc1ccc(S(=O)(=O)NC2CCN(C(=O)OC(C)C)CC2(C)C)c2ccccc12 (racemic) [Compound C-22, (±)-3,3-Dimethyl-4-[4-(2-methyl-benzoylamino)-naphthalene-1-sulfonylamino]-piperidine-1-carboxylic acid isopropyl ester]",< 500 nM
17,"CCN(CC)C(=O)N1CCC(NS(=O)(=O)c2ccc(NC(=O)c3ccccc3C)c3c2CCCC3)CC1 [Compound E-14, 4-[4-(2-Methyl-benzoylamino)-5,6,7,8-tetrahydro-naphthalene-1-sulfonylamino]-piperidine-1-carboxylic acid diethylamide]",< 1000 nM
18,"CCOC(=O)N1CCC(NS(=O)(=O)c2ccc(NC(=O)c3ccccc3C)c3ccccc23)C(C)(C)C1 (racemic) [Compound C-20, (±)-3,3-Dimethyl-4-[4-(2-methyl-benzoylamino)-naphthalene-1-sulfonylamino]-piperidine-1-carboxylic acid ethyl ester]",< 500 nM
19,Cc1ccccc1C(=O)Nc1ccc(S(=O)(=O)N[C@@H]2[C@H](C)CNC[C@@H]2C)c2ccccc12 [Compound J-53],< 5000 nM
20,"Cc1ccccc1C(=O)Nc1ccc(S(=O)(=O)NC2CCCN(C(=O)N(C)C)C2)c2c1CCCC2 (racemic) [Compound E-30, (±)-3-[4-(2-Methyl-benzoylamino)-5,6,7,8-tetrahydro-naphthalene-1-sulfonylamino]-piperidine-1-carboxylic acid dimethylamide]",< 500 nM
21,"CCCC(=O)N1CCC(NS(=O)(=O)c2ccc(NC(=O)c3ccc(Cl)cc3Cl)c3ccccc23)CC1 [Compound C-111, N-[4-(1-Butyryl-piperidin-4-ylsulfamoyl)-naphthalen-1-yl]-2,4-dichloro-benzamide]",< 500 nM
22,"CCOC(=O)N1CCC(NS(=O)(=O)c2cccc3c(NC(=O)c4cccs4)cccc23)CC1 [Compound H-9, 4-15-[(Thiophene-2-carbonyl)-amino]-naphthalene-4-sulfonylamino-4-piperidine-1-carboxylic acid ethyl ester]",< 1000 nM
23,"CCCC(=O)N1CCCC(NS(=O)(=O)c2ccc(NC(=O)c3ccccc3C)c3ccccc23)C1 (racemic) [Compound C-114, (±)-N-[4-(I-Butyryl-piperidin-3-ylsulfamoyl)-naphthalen-1-yl]-2-methyl-benzamide]",< 500 nM
24,"CCOC(=O)N1CCCC(NS(=O)(=O)c2ccc(NC(=O)c3ccccc3C)c3ccccc23)C1 (racemic) [Compound C-115, (±)-3-[4-(2-Methyl-benzoylamno)-naphthalene-1-sulfonylamino]-piperidine-1-carboxylic acid ethyl ester]",< 500 nM
25,"CCNC(=O)N1CCC(C)(NS(=O)(=O)c2ccc(NC(=O)c3ccccc3C)c3ccccc23)CC1 [Compound C-24, 4-Methyl-4-[4-(2-methyl-benzoylamino)-naphthalene-1-sulfonylamino]-piperidine-1-carboxylic acid ethylamide]",< 500 nM
26,"CCNC(=O)N1CCC(NS(=O)(=O)c2ccc(NC(=O)c3ccccc3)c3ccccc23)CC1 [Compound C-7, 4-(4-Benzoylamino-naphthalene-1-sulfonylamino)-piperidine-1-carboxylic acid ethylamide]",< 500 nM
27,"Cc1ccccc1C(=O)Nc1ccc(S(=O)(=O)NC2CCN(C(=O)OC(C)C)CC2)c2c1CCC2 [Compound H-70, 4-[7-(2-Methyl-benzoylamino)-indane-4-sulfonylamino]-piperidine-1-carboxylic acid isopropyl ester]",< 500 nM
